According to patent publication US10533006B2, “Nitrogen-containing heterocycle and carbocycle derivatives having TrkA inhibitory activity” (Shionogi & Co., Ltd., priority 2016, dated 2020):
Where two headings read alike, the source gives them in different places.

Assays:
human TrkA = biological target: T1, human TrkA (Homo sapiens, UniProt P04629); experiment: Human TrkA inhibition assay; type: biochemical; settings: human TrkA phosphorylation inhibition, ATP 500 μmol/L
T1 construct: purchased Lifetechnologies PV3144
Outline: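 Human TrkA (1 nmol/L final) preincubated 15 min with compound, then FL-peptide 27 (1.5 μmol/L) and ATP (500 μmol/L) added; 120 min at 37 °C in HEPES/MgCl2/DTT buffer. Mobility-shift measurement of phosphorylated vs non-phosphorylated substrate; IC50 by logistic regression over 3-fold dilution series.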

hERG channel (IKr) = biological target: T2, hERG channel (IKr) (Homo sapiens, UniProt Q12809); experiment: hERG test (whole cell patch clamp, IKr); type: cell-based; settings: CHO cells expressing hERG channel, read-out: % inhibition of tail peak current (IKr); for inhibition at 30 μmol/L: pH 7.4, 30 μmol/L of test compound; for inhibition at 5 μmol/L: pH 7.4, 5 μmol/L of test compound; for inhibition at 10 μmol/L: pH 7.4, 10 μmol/L of test compound
T2 construct: expressed in transfected cells; host or cells: CHO cells
Description: For the purpose of assessing risk of an electrocardiogram QT interval prolongation of the compound of the present invention, effects of the compound of the present invention on delayed rectifier K+ current (IKr), which plays an important role in the ventricular repolarization process, was studied using CHO cells expressing human ether-a-go-go related gene (hERG) channel.
After a cell was retained at a membrane potential of −80 mV by whole cell patch clamp method using an automated patch clamp system (QPatch; Sophion Bioscience A/S) and gave a leak potential of −50 mV, IKr induced by depolarization pulse stimulation at +20 mV for 2 seconds, and further, repolarization pulse stimulation at −50 mV for 2 seconds, was recorded. A vehicle, which is the 0.1-0.3% dimethyle sulfoxide solution in extracellular solution (NaCl: 145 mmol/L, KCl: 4 mmol/L, CaCl2: 2 mmol/L, MgCl2: 1 mmol/L, glucose: 10 mmol/L, HEPES (4-(2-hydroxyethyl)-1-piperazineethanesulfonic acid): 10 mmol/L, pH7.4), or the compound of the present invention had been dissolved at an objective concentration in the extracellular solution is applied to the cell at room temperature for 7 minutes or more. From the recording IKr, an absolute value of the tail peak current was measured based on the current value at the resting membrane potential using analysis software (QPatch assay software; Sophion Bioscience A/S). Further, the % inhibition of tail peak current for the compound of the present invention relative to the tail peak current after application of the vehicle is calculated to assess influence of the compound of the present invention on IKr.

CYP3A4 = biological target: T3, CYP3A4 (Homo sapiens, UniProt P08684); experiment: CYP3A4 (MDZ) MBI test; type: in vitro ADME; settings: pooled human liver microsomes, midazolam 1-hydroxylation, preincubation 0 vs 30 min
T3 construct: from tissue; host or cells: pooled human liver microsomes
Description: CYP3A4 (MDZ) MBI test is a test of investigating mechanism based inhibition potential on CYP3A4 by the enhancement of inhibitory degree of a metabolic reaction caused by the compound of the present invention. CYP3A4 inhibition was evaluated using pooled human liver microsomes by 1-hydroxylation reaction of midazolam (MDZ) as a marker reaction.
The reaction conditions are as follows: substrate, 10 μmol/L MDZ; pre-reaction time, 0 or 30 minutes; substrate reaction time, 2 minutes; reaction temperature, 37° C.; protein content of pooled human liver microsomes, at pre-reaction time 0.5 mg/mL, at reaction time […] (at 10-fold dilution); concentrations of the compound of the present invention, 1, 5, 10, 20 μmol/L (four points).
Pooled human liver microsomes and a solution of the compound of the present invention in K-Pi buffer (pH 7.4) as a pre-reaction solution were added to a 96-well plate at the composition of the pre-reaction. A part of pre-reaction solution was transferred to another 96-well plate, and 1/10 diluted by K-Pi buffer containing a substrate. NADPH as a co-factor was added to initiate a reaction as a marker reaction (preincubation 0 min). After a predetermined time of a reaction, methanol/acetonitrile=l/1 (v/v) solution was added to stop the reaction. In addition, NADPH was added to a remaining pre-reaction solution to initiate a pre-reaction (preincubation 30 min). After a predetermined time of a pre-reaction, a part was transferred to another 96-well plate, and 1/10 diluted by K-Pi buffer containing a substrate to initiate a reaction as a marker reaction. After a predetermined time of a reaction, methanol/acetonitrile=1/1 (v/v) solution was added to stop the reaction. After centrifuged at 3000 rpm for 15 minutes, 1-hydroxymidazolam in the supernatant was quantified by LC/MS/MS.
The sample adding DMSO as a solvent to a reaction system instead of a solution dissolving the compound of the present invention was adopted as a control (100%). Remaining activity (%) was calculated at each concentration of the compound of the present invention compared to a control, and IC value was calculated by reverse-presumption by a logistic model using a concentration and an inhibition rate. Shifted IC value was calculated as “IC of preincubation at 0 min/IC of preincubation at 30 min”. When a shifted IC is 1.5 or more, this is defined as positive. When a shifted IC is 1.0 or less, this is defined as negative.

T2 sequence (Q12809 whole entry): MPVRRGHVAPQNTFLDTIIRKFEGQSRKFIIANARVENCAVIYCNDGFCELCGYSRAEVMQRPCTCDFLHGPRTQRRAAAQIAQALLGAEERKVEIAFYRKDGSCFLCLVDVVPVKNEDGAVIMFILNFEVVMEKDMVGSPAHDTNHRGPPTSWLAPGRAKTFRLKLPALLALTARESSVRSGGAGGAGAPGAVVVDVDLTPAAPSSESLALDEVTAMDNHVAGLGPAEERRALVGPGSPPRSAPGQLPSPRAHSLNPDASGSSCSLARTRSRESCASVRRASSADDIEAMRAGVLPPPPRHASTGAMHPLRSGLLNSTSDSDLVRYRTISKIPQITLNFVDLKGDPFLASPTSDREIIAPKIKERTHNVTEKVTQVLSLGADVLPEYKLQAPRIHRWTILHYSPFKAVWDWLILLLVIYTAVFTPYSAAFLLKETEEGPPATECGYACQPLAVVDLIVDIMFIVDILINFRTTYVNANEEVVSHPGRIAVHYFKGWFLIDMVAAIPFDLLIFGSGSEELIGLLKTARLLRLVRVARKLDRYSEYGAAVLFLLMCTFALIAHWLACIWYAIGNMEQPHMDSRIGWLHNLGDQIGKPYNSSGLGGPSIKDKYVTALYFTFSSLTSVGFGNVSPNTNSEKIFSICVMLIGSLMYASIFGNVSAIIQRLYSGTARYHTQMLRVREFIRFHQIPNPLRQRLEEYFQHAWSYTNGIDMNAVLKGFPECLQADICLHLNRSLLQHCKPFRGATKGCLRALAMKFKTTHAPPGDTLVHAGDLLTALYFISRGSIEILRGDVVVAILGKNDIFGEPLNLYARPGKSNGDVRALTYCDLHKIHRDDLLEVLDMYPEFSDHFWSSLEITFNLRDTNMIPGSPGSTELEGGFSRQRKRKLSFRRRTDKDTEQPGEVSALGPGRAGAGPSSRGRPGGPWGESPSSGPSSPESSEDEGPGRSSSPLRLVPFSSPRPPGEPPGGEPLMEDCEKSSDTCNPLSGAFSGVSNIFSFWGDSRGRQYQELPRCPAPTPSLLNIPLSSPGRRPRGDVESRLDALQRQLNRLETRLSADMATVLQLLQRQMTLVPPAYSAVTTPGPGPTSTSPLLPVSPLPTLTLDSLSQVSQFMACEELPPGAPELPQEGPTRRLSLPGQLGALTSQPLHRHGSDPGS
T1 sequence (P04629 33-796): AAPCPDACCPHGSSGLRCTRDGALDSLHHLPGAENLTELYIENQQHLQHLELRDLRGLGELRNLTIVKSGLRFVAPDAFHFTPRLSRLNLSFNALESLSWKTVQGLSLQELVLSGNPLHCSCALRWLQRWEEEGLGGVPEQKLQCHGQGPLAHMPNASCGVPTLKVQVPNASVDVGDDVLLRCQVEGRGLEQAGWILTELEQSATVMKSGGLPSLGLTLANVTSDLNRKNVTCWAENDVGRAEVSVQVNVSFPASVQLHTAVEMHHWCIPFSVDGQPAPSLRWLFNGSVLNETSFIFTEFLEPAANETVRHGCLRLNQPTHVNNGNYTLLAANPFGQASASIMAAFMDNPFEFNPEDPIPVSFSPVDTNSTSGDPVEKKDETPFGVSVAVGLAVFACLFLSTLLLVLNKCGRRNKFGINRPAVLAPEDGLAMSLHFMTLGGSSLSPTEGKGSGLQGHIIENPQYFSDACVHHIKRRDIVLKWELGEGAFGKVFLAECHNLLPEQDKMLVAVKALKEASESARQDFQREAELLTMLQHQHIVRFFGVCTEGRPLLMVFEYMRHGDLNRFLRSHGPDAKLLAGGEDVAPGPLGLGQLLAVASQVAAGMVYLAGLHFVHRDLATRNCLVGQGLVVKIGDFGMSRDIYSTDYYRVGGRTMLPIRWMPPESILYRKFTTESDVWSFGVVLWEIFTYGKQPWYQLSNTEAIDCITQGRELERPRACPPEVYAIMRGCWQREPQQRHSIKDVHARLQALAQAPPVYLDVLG
T3 sequence (P08684 whole entry): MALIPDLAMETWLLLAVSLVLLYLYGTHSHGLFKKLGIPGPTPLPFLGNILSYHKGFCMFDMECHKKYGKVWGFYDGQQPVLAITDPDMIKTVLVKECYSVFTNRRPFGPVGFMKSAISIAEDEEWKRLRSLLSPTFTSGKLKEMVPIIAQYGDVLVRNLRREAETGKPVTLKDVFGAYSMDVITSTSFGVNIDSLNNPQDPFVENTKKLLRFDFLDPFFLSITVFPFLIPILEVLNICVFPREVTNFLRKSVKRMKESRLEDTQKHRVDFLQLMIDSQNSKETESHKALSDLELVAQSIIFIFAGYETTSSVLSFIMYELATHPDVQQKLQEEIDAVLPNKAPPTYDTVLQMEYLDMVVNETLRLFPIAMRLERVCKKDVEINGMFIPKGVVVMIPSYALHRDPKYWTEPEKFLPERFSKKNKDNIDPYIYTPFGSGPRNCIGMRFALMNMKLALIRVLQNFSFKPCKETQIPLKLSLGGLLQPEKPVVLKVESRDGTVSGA

Row | SMILES | IC50 (human TrkA; read-out: IC50_nM) [nM] | IC50 (human TrkA; read-out: IC50 value) [nM] | inhibition at 30 μmol/L (hERG channel (IKr)) [%] | mechanism based inhibition of CYP3A4 (shifted IC) (CYP3A4) | inhibition at 5 μmol/L (hERG channel (IKr)) [%] | inhibition at 10 μmol/L (hERG channel (IKr)) [%]
1 | COCCN1C[C@@H](NC(=O)Nc2c(C)c(-c3cnn(C)c3)nn2-c2ccccc2)[C@H](c2cnc(F)c(F)c2)C1 (racemic) [Compound I-5] | < 100 | – | 35.3 | Negative (When a shifted IC is 1.0 or less, this is defined as negative) | – | –
2 | COCCN1C[C@@H](NC(=O)Nc2c(C)c(-c3cnc(CO)nc3)nn2-c2ccccc2)[C@H](c2ccccc2)C1 (racemic) [Compound I-10] | < 100 | – | – | – | 34.6 | –
3 | CCN1CCC(NC(=O)c2cc(-c3nn(-c4ccccc4)c(NC(=O)N[C@@H]4C[C@@H](CCOC)N(C)[C@H]4c4ccc(F)c(F)c4)c3C)ccn2)CC1 [Compound I-66] | < 100 | – | – | – | 22.6 | –
4 | CCN1CCC(NC(=O)c2cc(-c3nn(-c4ccccc4)c(NC(=O)N[C@@H]4C[C@@H](CCOC)C[C@H]4c4ccccc4)c3C)ccn2)CC1 [Compound I-67] | < 100 | – | – | – | 16.3 | –
5 | COCC[C@@H]1C[C@@H](NC(=O)Nc2c(C)c(-c3cnc(C)nc3)nn2-c2ccccc2)[C@H](c2ccnc(F)c2)C1 [Compound I-164] | – | 1.8 | – | Negative (When a shifted IC is 1.0 or less, this is defined as negative) | – | –
6 | CCOc1ncc(-c2nn(-c3ccccc3)c(NC(=O)N[C@@H]3C[C@@H](CCOC)C[C@H]3c3ccc(F)c(F)c3)c2C)cn1 [Compound I-169] | < 100 | – | – | – | – | 21
7 | CCOc1ncc(-c2nn(-c3ccccc3)c(NC(=O)N[C@@H]3C[C@@H](CCOC)N(C)[C@H]3c3ccc(F)c(F)c3)c2C)cn1 [Compound I-174] | < 100 | – | – | – | – | 33.6

Further lines, with some results ahead:

Row | IC50 (human TrkA; read-out: IC50_nM) [nM] | IC50 (human TrkA; read-out: IC50 value) [nM] | SMILES | inhibition at 30 μmol/L (hERG channel (IKr)) [%] | mechanism based inhibition of CYP3A4 (shifted IC) (CYP3A4) | inhibition at 5 μmol/L (hERG channel (IKr)) [%] | inhibition at 10 μmol/L (hERG channel (IKr)) [%]
8 | < 100 | – | COCC[C@@H]1C[C@@H](NC(=O)Nc2c(C)c(-c3cnn(C)c3)nn2-c2ccccc2)[C@H](c2ccnc(F)c2)N1C [Compound I-68] | 12.8 | Negative (When a shifted IC is 1.0 or less, this is defined as negative) | – | –
9 | – | 0.74 | COCC[C@@H]1C[C@@H](NC(=O)Nc2c(C)c(-c3cnc(OC)nc3)nn2-c2ccccc2)[C@H](c2ccnc(F)c2)N1C [Compound I-92] | 19.3 | – | – | –
10 | < 100 | – | CCOc1ncc(-c2nn(-c3ccccc3)c(NC(=O)N[C@@H]3C[C@@H](CCOC)N(C)[C@H]3c3ccnc(F)c3)c2C)cn1 [Compound I-93] | – | – | 11.6 | –
11 | – | 0.92 | COCC[C@@H]1C[C@@H](NC(=O)Nc2c(C)c(-c3cnc(C)nc3)nn2-c2ccccc2)[C@H](c2ccnc(F)c2)N1C [Compound I-173] | – | Negative (When a shifted IC is 1.0 or less, this is defined as negative) | – | –
